Source: patent US9976141B2, “Compositions and methods for inhibiting gene expression of Hif2alpha” (Arrowhead Madison Inc., priority 2015, dated 2018)
Strand notation (5' to 3'): a small letter for the sugar, then the base; units joined by * are phosphorothioate-linked, units joined directly phosphodiester-linked; [ ] holds rarer units or linkages, { } end groups; capitals alone tell only the bases. d = 2'-deoxy (DNA); m = 2'-O-methyl; f = 2'-fluoro

Columns and labels:
[1] = system: human (tumor) Hif2α (EPAS1) mRNA; assay: Hif2α knockdown in orthotopic RCC tumor bearing mice, single injection of RNAi trigger-delivery polymer conjugate, RT-qPCR (Table 7); format: in vivo; conditions: single tail vein injection, relative to isotonic glucose
Procedure: A pCR3.1 expression vector expressing the reporter gene secreted alkaline phosphatase (SEAP) under the CMV promoter was prepared by directional cloning of the SEAP coding sequence PCR amplified from Clontech's pSEAP2-basic vector. Convenient restriction sites were added onto primers used to amplify the SEAP coding sequence for cloning into the pCR3.1 vector (Invitrogen). The resultant construct pCR3-SEAP was used to create a SEAP-expressing A498 ccRCC cell line. Briefly, pCR3-SEAP plasmid was transfected into A498 ccRCC cells by electroporation following manufacturer's recommendation. Stable transfectants were selected by G418 resistance. Selected A498-SEAP clones were evaluated for SEAP expression and integration stability.
Female athymic nude mice were anesthetized with ˜3% isoflourane and placed in the right lateral decubitus position. A small, 0.5-1 cm, longitudinally abdominal incision in the left flank was made. Using a moist cotton swab, the left kidney was lifted out of the peritoneum and gently stabilized. Just before injection, a 1.0 ml syringe was filled with the cell/Matrigel mixture and a 27 gauge needle catheter was attached to the syringe tip. The filled syringe was then attached to a syringe pump (Harvard Apparatus, model PHD2000) and primed to remove air. The tip of a 27-gauge needle catheter attached to a syringe was inserted just below the renal capsule near the caudal pole and the tip of the needle was then carefully advanced cranially along the capsule 3-4 mm. A 10 μl aliquot of 2:1 (vol:vol) cell/matrigel mixture containing about 300,000 cells was slowly injected into the kidney parenchyma using a syringe pump. The needle was left in the kidney for 15-20 seconds to ensure the injection was complete. The needle was then removed from the kidney and a cotton swab was placed over the injection site for 30 seconds to prevent leakage of the cells or bleeding. The kidney was then gently placed back into the abdomen and the abdominal wall was closed. Serum was collected every 7-14 days after implantation to monitor tumor growth using a commercial SEAP assay kit. For most studies, tumor mice were used 5-6 weeks after implantation, when tumor measurements were typically around 4-8 mm.
RGD targeted HiF2α-RNAi trigger delivery conjugates. Delivery polymers were modified using RGD-PEG-HyNic, RGD-PEG-ACit-PNP, or RDG-PEG-FCitFP-TFP and PEG-dipeptide modifying agents. The indicated amount of polymer 126 or 100A polymer was modified with 8×PEG12-ACit-PABC-PNP/0.5× aldehyde-PEG24-FCit-PABC-PNP (with RGD mimic #1-PEG-HyNic using protocol #1) and the indicated amount of the indicated Hif2α RNAi trigger. Polymer 064 was modified according to protocol 7. Kidney RCC tumor-bearing mice were generated as described and treated with a single tail vein injection of isotonic glucose (G1) or the indicated Hif2α RNAi trigger-delivery polymer conjugate. Mice were euthanized at the indicated time after injection and total RNA was prepared from kidney tumor using Trizol reagent following manufacturer's recommendation. Relative HiF2α mRNA levels were determined by RT-qPCR as described below and compared to mice treated with delivery buffer (isotonic glucose) only.
In preparation for quantitative PCR, total RNA was isolated from tissue samples homogenized in TriReagent (Molecular Research Center, Cincinnati, Ohio) following the manufacturer's protocol. Approximately 500 ng RNA was reverse-transcribed using the High Capacity cDNA Reverse Transcription Kit (Life Technologies). For human (tumor) Hif2α (EPAS1) expression, pre-manufactured TaqMan gene expression assays for human Hif2α (Catalog #4331182) and CycA (PPIA) Catalog #: 4326316E) were used in biplex reactions in triplicate using TaqMan Gene Expression Master Mix (Life Technologies) or VeriQuest Probe Master Mix (Affymetrix). […]

[2] = system: human EPAS1 (Hif2α) cDNA in psiCHECK2 (Renilla luciferase/EPAS1 fusion mRNA) in Hep3B cells; assay: Efficacy screen of Hif2α RNAi triggers in vitro, dual-luciferase reporter assay (1 nM and 0.1 nM); format: cell-based; conditions: Hep3B cells co-transfected with EPAS1-psiCHECK2, Renilla luciferase normalized to firefly luciferase
How it was run: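 Knockdown read by dual-luciferase assay: Renilla signal from the Renilla/EPAS1 fusion transcript divided by firefly luciferase expressed from the same plasmid. Triggers (modified canonical siRNAs, 1 nM or 0.1 nM) were co-transfected with 25 ng reporter plasmid per well into human hepatocellular carcinoma Hep3B cells.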

Substance	Relative Expression day 4 (Hif2α mRNA in kidney tumor) ([1]; RNAi trigger 50 μg, polymer 064 125 μg)	Relative Expression day 4 (Hif2α mRNA in kidney tumor) ([1]; RNAi trigger 80 μg, polymer 126 400 μg)	Relative Rluc-Hif2α ([2]; 0.1 nM RNAi trigger)	Relative Rluc-Hif2α ([2]; 1 nM RNAi trigger)
AD03262 (antisense AUUCAUGAAAUCGUUACGUUG; sense ACGUAACGAUUUCAUGAAUT; Hif2alpha RNAi agent antisense strand; modified_base 2,8,10,14 /mod_base = “2′-deoxy-2′-fluoro corresponding nucleoside”; modified_base 1,3,4,5,6,7,9,11,12,13,15,16,17,18,19,20,21 /mod_base = “2′-O-methyl corresponding nucleoside”; modified_base 2,3,20,21 /mod_base = “5′-phosphorothioate corresponding nucleotide”; Hif2alpha RNAi agent sense strand; modified_base 7,8,9 /mod_base = “2′-deoxy-2′-fluoro corresponding nucleoside”; modified_base 1,2,3,4,5,6,10,11,12,13,14,15,16,17,18,19 /mod_base = “2′-O-methyl corresponding nucleoside”; modified_base 20 /mod_base = “3′-3′-linked nucleotide”; modi)	0.197			
AD01028 (antisense TAAAUCGUUACGUUGACAGTT; sense CUGUCAACGUAACGAUUUAT; Hif2alpha RNAi agent antisense strand; modified_base 2,4,6,8,10,12,14,16,18 /mod_base = “2′-deoxy-2′-fluoro corresponding nucleoside”; modified_base 3,5,7,9,11,13,15,17,19 /mod_base = “2′-O-methyl corresponding nucleoside”; modified_base 21 /mod_base = “5′-phosphorothioate corresponding nucleotide”; Hif2alpha RNAi agent sense strand; modified_base 1,3,5,7,9,11,13,15,17,19 /mod_base = “2′-deoxy-2′-fluoro corresponding nucleoside”; modified_base 2,4,6,8,10,12,14,16,18 /mod_base = “2′-O-methyl corresponding nucleoside”; modified_base 20 /mod_base = “3′-3′-linked nucleotide”; modified_base 1 /mo)		0.39		
2312 (sense fCmAfCmAfAmAfGmUfGmGfGmCfCmGfUmCfGmGfAdT; antisense dTfCmCfGmAfCmGfGmCfCmCfAmCfUmUfUmGfUmGdT*dT; siRNA) [compound 2312]			0.899 ± 0.124	0.725 ± 0.173
2353 (sense fUmGfCmCfAmUfAmGfGmUfGmUfGmAfCmAfAmUfAdT; antisense dTfAmUfUmGfUmCfAmCfAmCfCmUfAmUfGmGfCmAdT*dT; siRNA) [compound 2353]			0.635 ± 0.156	0.324 ± 0.075
2297 (sense fCmAfAmUfGmCfAmGfUmAfCmCfCmAfGmAfCmGfAdT; antisense dTfCmGfUmCfUmGfGmGfUmAfCmUfGmCfAmUfUmGdT*dT; siRNA) [compound 2297]			0.704 ± 0.083	0.643 ± 0.028
2329 (sense fCmUfGmAfCmCfAmGfAmUfAmUfGmAfCmUfGmUfAdT; antisense dTfAmCfAmGfUmCfAmUfAmUfCmUfGmGfUmCfAmGdT*dT; siRNA) [compound 2329]			0.807 ± 0.117	0.456 ± 0.064
2347 (sense fUmUfAmUfAmUfCmUfGmGfGmUfUmAfAmGfUmGfAdT; antisense dTfCmAfCmUfUmAfAmCfCmCfAmGfAmUfAmUfAmAdT*dT; siRNA) [compound 2347]			0.753 ± 0.092	0.530 ± 0.040
2354 (sense fCmCfAmUfAmGfGmUfGmUfGmAfCmAfAmUfCmCfAdT; antisense dTfGmGfAmUfUmGfUmCfAmCfAmCfCmUfAmUfGmGdT*dT; siRNA) [compound 2354]			1.043 ± 0.239	0.741 ± 0.189
2372 (sense fGmUfUmGfCmUfAmGfCmCfCmUfUmCfAmAfGmUfAdT; antisense dTfAmCfUmUfGmAfAmGfGmGfCmUfAmGfCmAfAmCdT*dT; siRNA) [compound 2372]			0.831 ± 0.103	0.514 ± 0.044
2360 (sense fGmGfGmAfGmCfAmCfUmGfCmGfCmGfCmUfAmUfAdT; antisense dTfAmUfAmGfCmGfCmGfCmAfGmUfGmCfUmCfCmCdT*dT; siRNA) [compound 2360]			1.102 ± 0.119	0.962 ± 0.167
2267 (sense fUmUfGmGfCmCfGmCfUmCfAmGfCmCfUmAfUmGfAdT; antisense dTfCmAfUmAfGmGfCmUfGmAfGmCfGmGfCmCfAmAdT*dT; siRNA) [compound 2267]			1.029 ± 0.104	0.651 ± 0.049
2350 (sense fUmGfUmCfGmGfCmUfUmUfUmUfGmCfCmAfUmCfAdT; antisense dTfGmAfUmGfGmCfAmAfAmAfAmGfCmCfGmAfCmAdT*dT; siRNA) [compound 2350]			0.755 ± 0.085	0.678 ± 0.105
2234 (sense fCmGfAmCfUmCfCmCfAmGfCmAfUmUfCmGfAmGfAdT; antisense dTfCmUfCmGfAmAfUmGfCmUfGmGfGmAfGmUfCmGdT*dT; siRNA) [compound 2234]			0.508 ± 0.148	0.388 ± 0.046
2408 (sense fUmAfUmUfAmUfAmUfUmGfUmCfGmAfAmUfUmCfAdT; antisense dTfGmAfAmUfUmCfGmAfCmAfAmUfAmUfAmAfUmAdT*dT; siRNA) [compound 2408]			0.730 ± 0.045	0.282 ± 0.004
2410 (sense fUmAfUmUfGmUfCmGfAmAfUmUfCmCfUmAfCmUfAdT; antisense dTfAmGfUmAfGmGfAmAfUmUfCmGfAmCfAmAfUmAdT*dT; siRNA) [compound 2410]			0.228 ± 0.033	0.154 ± 0.022
2253 (sense fUmUfCmGfUmGfAmGfAmAfCmCfUmGfAmGfUmCfAdT; antisense dTfGmAfCmUfCmAfGmGfUmUfCmUfCmAfCmGfAmAdT*dT; siRNA) [compound 2253]			0.646 ± 0.144	0.564 ± 0.043
2406 (sense fUmCfAmAfCmGfUmAfAmCfGmAfUmUfUmCfAmUfAdT; antisense dTfAmUfGmAfAmAfUmCfGmUfUmAfCmGfUmUfGmAdT*dT; siRNA) [compound 2406]			0.241 ± 0.022	0.168 ± 0.044
2262 (sense fUmCfCmUfCmAfCmAfAmUfAmGfUmCfUmGfUmGfAdT; antisense dTfCmAfCmAfGmAfCmUfAmUfUmGfUmGfAmGfGmAdT*dT; siRNA) [compound 2262]			0.755 ± 0.031	0.277 ± 0.071
2295 (sense fAmCfGmCfCmCfAmAfUmAfGmCfCmCfUmGfAmAfAdT; antisense dTfUmUfCmAfGmGfGmCfUmAfUmUfGmGfGmCfGmUdT*dT; siRNA) [compound 2295]			1.047 ± 0.184	0.863 ± 0.122
2247 (sense fGmCfUmAfAmCfAmGfGmAfCmAfUmAfGmUfAmUfAdT; antisense dTfAmUfAmCfUmAfUmGfUmCfCmUfGmUfUmAfGmCdT*dT; siRNA) [compound 2247]			0.439 ± 0.082	0.231 ± 0.048
